Measurements from patent US11723890B2, “Methods of treatment using an mTORC1 modulator” (Navitor Pharmaceuticals, Inc., priority 2019, dated 2023).
Entries after “also recorded” stand apart in the source; their conditions may differ. Marks after values point to notes of the source that are not given here.

Assays:
[1] = Example 2: single-dose pharmacokinetics in plasma and CSF; assay type: in vivo, human; conditions: healthy males, single oral 2400 mg
Procedure: Pharmacokinetics Endpoints: The following PK parameters for compound A were determined in serum and CSF, as appropriate: • Cmax: Maximum compound A concentration determined directly from the concentration-time profile • Tmax: Time of maximum compound A concentration determined directly from the concentration-time profile • AUClast: Area under the concentration-time curve from pre-dose (time 0) to the time of the last quantifiable concentration (tlast) calculated using the linear-log trapezoidal rule • AUCinf: Area under the concentration-time curve from pre-dose (time 0) extrapolated to infinite time (AUClast+Clast/λz) calculated using the linear-log trapezoidal rule • AUC% extrap: Percentage of AUCinf that is due to extrapolation beyond tlast • λz: The terminal elimination rate constant determined by selection of at least 3 data points on the terminal phase of the concentration-time curve. • t1/2: Terminal elimination half-life calculated as: ln 2/λz • CL/F: Apparent body clearance calculated as: Dose/AUCinf • Vz/F: Apparent volume of distribution calculated as: Dose/(AUCinf*λz) • MRT: Mean residence time (of the unchanged drug in the systemic circulation) as: AUMC/AUC • RA (AUC): Accumulation CSF/plasma ratio calculated as the ratios of the AUCinf,ss at steady state and AUCτ,sd after single dosing calculated as: AUCτ,ss/AUCτ,sd • RA (Cmax): Accumulation CSF/plasma ratio calculated as ratio of Cmax,ss at steady state and Cmax,sd after single dosing calculated as: Cmax,ss/Cmax,sd • CSF compound A concentrations over time and the ratio compared with time-matched plasma concentrations were also evaluated Overall Study Design: […]
(§1) Pharmacokinetic, Metabolomic, and Proteomic Variables: Blood and CSF samples for the PK, metabolomics, and proteomic analysis of compound A were collected at various time points and were processed and analyzed by a validated method for determining concentrations of compound A.

cynomolgus monkey [2] = assay: Cardiovascular study in cynomolgus monkeys; assay type: in vivo
[3] = system: nonhuman primate model of anxiolytic/depressive behavioral responses; assay: Nonhuman primate model of anxiolytic/depressive behavioral responses; assay type: in vivo; conditions: versus ketamine
Excerpt: (§2) Compound A [(S)-2-amino-5,5-difluoro-4,4-dimethylpentanoic acid] is a novel, orally bioavailable, specific, small molecule that activates mTORC1 pathway signaling in the brain, including those centers responsible for mood.

[4] = system: N-methyl-D-aspartate (NMDA) receptor; assay: Nonclinical NMDA receptor modulation / antagonist activity; conditions: nonclinical studies
Excerpt: as §2
NMDA antagonists, in particular ketamine, are associated with mental status changes that have similarity to psychotic or dissociative symptoms seen in psychiatric disorders.

[5] = system: CSF neurotransmitter metabolites; assay: Example 2: CSF neurotransmitter metabolomics after a single dose; assay type: in vivo, human; conditions: healthy males; for 1-methyl-4-imidazoleacetate, CSF, ratio relative to baseline / Carboxyethyl-GABA, CSF, ratio relative to baseline / Homovanillate (HVA), CSF, ratio relative to baseline / Hydroxyindoleacetic acid (HIAA), CSF, ratio relative to baseline: single 2400 mg, n = 12
Excerpt: (§3) Exploratory Objective(s): The exploratory objectives of this study were as follows using CSF and plasma samples collected over the same time frame as the PK samples: • conducted unbiased metabolomic analysis using validated methods as described: https://www.metabolon.com/what-we-do/our-technology. • conducted unbiased proteomic analysis using validated methods as described: https://www.biognosys.com/technology. Study Endpoints:
This study was a Phase 1, double-blind, placebo-controlled, single-dose study to evaluate the PK, metabolomic, and proteomic profiles of compound A in plasma and CSF in healthy male subjects between the ages of 18 and 55 years. […] Once eligibility criteria were met and the ICF had been signed, subjects were admitted to the CRU on Day-1. On Day 1, intradural and venous catheters were inserted and subjects were randomly assigned to double-blind treatment with a single oral 2400 mg dose of compound A or placebo. The catheter insertion site was assessed on regular basis for early signs of local infection or CSF leakage. Time-matched CSF and blood samples were then collected for 36 hours, after which, the intradural and venous catheters were removed. See FIG. 7 for the study flow chart.
as §1
Low CSF concentrations of HVA have been reported to be a marker of depressive symptoms. […] Values represent the ratio of metabolite concentrations for each time point relative to baseline. An increase from baseline is indicated with a single asterisk (*).

[6] = Example 1 Part A: single ascending dose plasma pharmacokinetics; assay type: in vivo, human
Procedure: The in-house period was 6 days/5 nights.
Frequent PK sampling was included in the study to evaluate single-dose PK. Part B of the study included assessments designed to assess preliminary efficacy.
Single ascending doses of compound A were assessed in healthy adult males and females in Part A of a two-part, randomized, double-blind, placebo-controlled, first-in-humans Study (see Example 1, Part A).

[7] = system: BDNF and BDNF receptor (NTRK2); assay: Example 2: CSF BDNF and BDNF receptor (NTRK2) fragment levels; assay type: in vivo, human; conditions: healthy males; single oral 2400 mg; FIGS. 9 and 10
Excerpt: as §3, §1

[8] = system: rodent models of stress-induced depressive behavior; assay: Preclinical rodent models of stress-induced depressive behavior; assay type: in vivo; conditions: head-to-head with ketamine
Excerpt: as §2

[9] = 14-day Q3D oral toxicology study in cynomolgus monkeys; conditions: cynomolgus monkey, in vivo; cynomolgus monkeys; 160, 500 or 2000 mg/kg PO Q3D for 14 days (5 doses); read-out: no-observed-adverse-effect level (NOAEL)
Procedure: (§4) In cynomolgus monkeys administered 160, 500, or 2000 mg/kg PO Q3D for 14 days (5 doses total), the NOAEL was 160 mg/kg.
(§5) Precautions related to cardiovascular safety in this clinical study included frequent measurement of vital signs (e.g., blood pressure, pulse, and body temperature) and frequent electrocardiograms (ECGs).

cynomolgus monkey [10] = assay: as above; conditions: in vivo, po, 2000 mg/kg
Procedure: as §4, §5

What does the source list for `CC(C)(C[C@H](N)C(=O)O)C(F)F` [Compound A, (S)-2-amino-5,5-difluoro-4,4-dimethylpentanoic acid]?
uptake into circulation and brain exposure [1]: rapid uptake of compound A into circulation with rapid brain exposure; human CSF levels ([1]; FIG. 8): consistent with rodent levels at the effective dose; half-life ([1]; male, human, in vivo): 10 to 13 h; cardiovascular findings at ≥160 mg/kg (cynomolgus monkey [2]; single oral dose ≥160 mg/kg): decreased heart rate and body temperature; cardiovascular finding at higher dosage levels (cynomolgus monkey [2]; single oral dose ≥500 mg/kg): Increased blood pressure; pharmacological activity [3]: comparable to that of ketamine; NMDA receptor modulation / antagonist activity [4]: not associated with N-methyl-D-aspartate (NMDA) receptor modulation; also recorded: did not demonstrate NMDA antagonist activity; onset of effect on key neurotransmitter turnover (GABA, histamine, serotonin, dopamine) ([5]; CSF, single oral 2400 mg): within two hours of treatment; duration of effect on key neurotransmitter turnover ([5]; CSF, single oral 2400 mg, post-dose): 36 h; 1-methyl-4-imidazoleacetate, CSF, ratio relative to baseline ([5]; 1 h post-dose): 1.08; Carboxyethyl-GABA, CSF, ratio relative to baseline ([5]; 1 h post-dose): 1.12; Homovanillate (HVA), CSF, ratio relative to baseline ([5]; 1 h post-dose): 1.08; Hydroxyindoleacetic acid (HIAA), CSF, ratio relative to baseline ([5]; 1 h post-dose): 1.09; 1-methyl-4-imidazoleacetate, CSF, ratio relative to baseline ([5]; 2 h post-dose): 1.35*; Carboxyethyl-GABA, CSF, ratio relative to baseline ([5]; 2 h post-dose): 1.29*; Homovanillate (HVA), CSF, ratio relative to baseline ([5]; 2 h post-dose): 1.41*; Hydroxyindoleacetic acid (HIAA), CSF, ratio relative to baseline ([5]; 2 h post-dose): 1.28*; 1-methyl-4-imidazoleacetate, CSF, ratio relative to baseline ([5]; 4 h post-dose): 1.52*; Carboxyethyl-GABA, CSF, ratio relative to baseline ([5]; 4 h post-dose): 1.38*; Homovanillate (HVA), CSF, ratio relative to baseline ([5]; 4 h post-dose): 1.56*; Hydroxyindoleacetic acid (HIAA), CSF, ratio relative to baseline ([5]; 4 h post-dose): 1.1*; 1-methyl-4-imidazoleacetate, CSF, ratio relative to baseline ([5]; 8 h post-dose): 1.47*; Carboxyethyl-GABA, CSF, ratio relative to baseline ([5]; 8 h post-dose): 1.38*; Homovanillate (HVA), CSF, ratio relative to baseline ([5]; 8 h post-dose): 1.3*; Hydroxyindoleacetic acid (HIAA), CSF, ratio relative to baseline ([5]; 8 h post-dose): 1.22; 1-methyl-4-imidazoleacetate, CSF, ratio relative to baseline ([5]; 12 h post-dose): 1.56*; Carboxyethyl-GABA, CSF, ratio relative to baseline ([5]; 12 h post-dose): 1.4*; Homovanillate (HVA), CSF, ratio relative to baseline ([5]; 12 h post-dose): 1.46*; Hydroxyindoleacetic acid (HIAA), CSF, ratio relative to baseline ([5]; 12 h post-dose): 1.21; 1-methyl-4-imidazoleacetate, CSF, ratio relative to baseline ([5]; 24 h post-dose): 1.33*; Carboxyethyl-GABA, CSF, ratio relative to baseline ([5]; 24 h post-dose): 1.24*; Homovanillate (HVA), CSF, ratio relative to baseline ([5]; 24 h post-dose): 1.34*; Hydroxyindoleacetic acid (HIAA), CSF, ratio relative to baseline ([5]; 24 h post-dose): 1.21*; 1-methyl-4-imidazoleacetate, CSF, ratio relative to baseline ([5]; 36 h post-dose): 1.75*; Carboxyethyl-GABA, CSF, ratio relative to baseline ([5]; 36 h post-dose): 1.22*; Homovanillate (HVA), CSF, ratio relative to baseline ([5]; 36 h post-dose): 1.41*; Hydroxyindoleacetic acid (HIAA), CSF, ratio relative to baseline ([5]; 36 h post-dose): 1.28*; CL/F and Vz/F estimates versus dose ([6]; 150 mg to 2400 mg): increased with dose; dose proportionality of Cmax and AUC∞ ([6]; 150 mg to 2400 mg): slightly less than dose-proportional; Tmax ([6]; both sexes, human, healthy volunteers, single oral 150-2400 mg, range among cohorts, post dose, read-out: Median Tmax): 0.5 to 1.5 h; half-life ([6]; both sexes, human, healthy volunteers, single oral 150-2400 mg, range among cohorts, read-out: terminal elimination half-life): 12.7 to 15.9 h; CSF BDNF and BDNF receptor (NTRK2) fragment levels [7]: rapid release of BDNF and receptor degradation; adverse effects in rodent models [8]: without producing significant adverse effects; antidepressant effects [8]: rapid antidepressant effects comparable to those of ketamine; NOAEL at 14 days [9]: 160 mg/kg; adverse effects at 2000 mg/kg (cynomolgus monkey [10]): dehydration in one animal, likely secondary to vomiting, and increased aspartate aminotransferase (AST) in one animal
